# Data as given in patent US20250236596A1, “HYDROXYLAMINE-BASED EGFR INHIBITORS FOR TREATMENT OF CANCER WITH BRAIN METASTASES” (University of Georgia Research Foundation, Inc., priority 2022, published 2025).
# What was measured:
# [1] = test system: Caco-2 cells; assay: Caco-2 cell permeability assay; type: in vitro ADME; conditions: result in words
# Protocol: Compounds were evaluated at Pharmaron Inc. for their ability to permeate Caco-2 cells and MDCKII-MDR1 cells. A 96-well HTS Transwell plate (Corning) was used for the Caco-2 and MDCKII-MDR1 cell seeding. Caco-2 cells were seeded at a density of 6.86×10^5 cells/mL and cultivated for 14-18 days prior to assays. MDCKII-MDR1 cells were seeded at a density of 1.56×10^6 cells/mL and cultivated for 4-8 days prior to assays. To determine the rate of drug transport in both the absorptive (apical to basolateral (A-B)) and secretory (basolateral to apical (B-A)) directions, compounds (5 μM in DMSO for Caco-2 cells, and 1 μM in DMSO for MDCKII-MDR1 cells) were added to the donor wells. Plates were incubated at 37° C. for 2 h and samples (50 μL) were taken at the beginning and end of the incubation in both the donor and acceptor wells with the assay run in duplicate (n=2). Samples were analyzed by LC-MS/MS. The apparent permeability coefficient (Papp) in units (cm/s×10^−6) was calculated using the following equation.
# where, VA represents the volume (mL) in the acceptor well. Area is the surface of the membrane (0.143 cm^2 for Transwell-96 well plate) and time is the total transport time in sec.
# The efflux ratio was determined using the following equation: Efflux ratio=Papp (B-A)/Papp(A-B)
# Where, Papp (B-A) indicates the apparent permeability in the basolateral to apical direction, and Papp (A-B) indicates the apparent permeability in the apical to basolateral direction.
# [2] = Solubility in PBS at pH 7.4; type: physicochemical; conditions: compared to both 1 and 6; result in words
# Protocol: Solubility was determined by Pharmaron Inc. and each compound was assessed in duplicate (n=2) by adding 15 μL of compound stock solution (10 mM in DMSO) into a 96-well plate along with 485 μL of buffer followed by shaking at 25° C., 1,100 rpm for 2 h. Wells were filtered and samples (5 μL) were taken followed by dilution with an equal volume of DMSO (5 μL) and 490 μL of aqueous solution. Samples were analyzed by LC-MS/MS.
# [3] = test system: HCC827 NSCLC cells (EGFR del E746_A750); assay: CellTiter-Glo viability assay, HCC827; type: cell-based; conditions: Homo sapiens; HCC827, EGFR del E746_A750, 72 h; read-out: antiproliferative IC50
# Protocol: (§1) The A431, HCC827, SK-BR-3, ZR-75-30, AU565 and Caco-2 cell lines were obtained from ATCC. The NCI-H1975 cell line was obtained from SIBS. The NCI-H3255 cell line was obtained from CoBioer. Engineered Ba/F3 cell lines were obtained from Crown Bioscience. MCKII-MDR1 cells were obtained from the Netherlands Cancer Institute. HEK293 cells were obtained from Invitrogen. A431 cells were cultured in DMEM (Life Technologies) with 10% FBS. HCC827, NCI-H1975 and AU565 cells were cultured in RPMI1640 (Invitrogen) with 10% FBS. NCI-H3255 cells were cultured in BEGM (Lonza) with 10% FBS. Ba/F3 EGFR-del E746_A750/C797S and Ba/F3 EGFR-L858R/C797S cells were cultured in RPMI (Invitrogen) with 10% FBS. SK-BR-3 cells were cultured in McCoy's 5a (Invitrogen) with 10% FBS. ZR-75-30 cells were cultured in RPMI1640 (Invitrogen) with 20% FBS. BT474 cells were cultured in DMEM (Gibco) with 10% FBS and 10 μg/mL Insulin. Caco-2 and MCKII-MDR1 culture information is given in the permeability studies section. […]
# (§2) Viability assays using A431, HCC827, NCI-H1975, NCI-H3255, Ba/F3 EGFR-del E746_A750/C797S, Ba/F3 EGFR-L858R/C797S, AU565, SK-BR-3 and ZR-75-30 cells were performed at Crown BioScience. […] Dose-response curves were generated and used to calculate the IC50 values which were calculated on GraphPad Prism from the non-linear regression equation fitted with a sigmoidal dose response and are presented as the mean±SEM.
# [4] = test system: A431 cell line (overexpressed EGFR wt); assay: CellTiter-Glo viability assay, A431; type: cell-based, human
# Protocol: as §1, §2
# [5] = target: T1, hERG channel (Homo sapiens, UniProt Q12809); assay: hERG channel inhibition, manual patch clamp; type: cell-based
# T1 construct: assay at Pharmaron Inc; host or cells: HEK293
# Protocol: The potential inhibitory effect of compounds on the hERG channel was assessed by Pharmaron Inc. using the manual patch clamp system as previously described.^20 The HEK293 cell line (Invitrogen) stably transfected with the hERG gene was employed. Compounds were tested at 5 concentrations (0.37, 1.11, 3.33, 10 and 30 μM) and run in triplicate (n=3). IC50 values were determined by plotting the % inhibition against the concentration of compounds using GraphPad Prism from the non-linear regression equation fitted with a sigmoidal dose-response curve, and the IC50 values are presented as the mean±SEM.
# [6] = target: CYP2C19 (Homo sapiens, UniProt P33261); assay: Human CYP450 inhibition in human liver microsomes, CYP2C19; type: in vitro ADME; conditions: pooled human liver microsomes, probe (S)-mephenytoin (50 μM), 4′-hydroxylation
# Protocol: Assessment of compound 15 was carried out at Pharmaron Inc. for its potential to inhibit cytochrome P450 (CYP) isoforms using human liver microsomes. The activities tested were CYP1A2-mediated phenacetin O-demethylation, CYP2C19-mediated (S)-mephenytoin 4′-hydroxylation, CYP2C9-mediated diclofenac 4′-hydroxylation, CYP2D6-mediated dextromethorphan O-demethylation and CYP3A4-mediated midazolam 1′-hydroxylation. Concentrations of substrates were phenacetin (40 μM), mephenytoin (50 μM), diclofenac (6 μM), dextromethorphan (2 μM) and midazolam (1 μM). Probe substrates phenacetin, mephenytoin and dextromethorphan were incubated at 37° for 20 min. Probe substrates diclofenac and midazolam were incubated at 37° for 5 min. […] The reactions were initiated by adding NADPH (1 mM final concentration) after a 5 min-preincubation and the assay was ran in duplicate (n=2). Samples were analyzed by UPLC-MS/MS.
# [7] = test system: 468-member human kinase panel; assay: KINOMEScan kinase selectivity panel, S score; type: binding; conditions: 1 μM; 6/403 nonmutant kinases
# From the text: Percent control was mapped onto the kinome tree using TREEspot™.
# T1 sequence (Q12809 whole entry): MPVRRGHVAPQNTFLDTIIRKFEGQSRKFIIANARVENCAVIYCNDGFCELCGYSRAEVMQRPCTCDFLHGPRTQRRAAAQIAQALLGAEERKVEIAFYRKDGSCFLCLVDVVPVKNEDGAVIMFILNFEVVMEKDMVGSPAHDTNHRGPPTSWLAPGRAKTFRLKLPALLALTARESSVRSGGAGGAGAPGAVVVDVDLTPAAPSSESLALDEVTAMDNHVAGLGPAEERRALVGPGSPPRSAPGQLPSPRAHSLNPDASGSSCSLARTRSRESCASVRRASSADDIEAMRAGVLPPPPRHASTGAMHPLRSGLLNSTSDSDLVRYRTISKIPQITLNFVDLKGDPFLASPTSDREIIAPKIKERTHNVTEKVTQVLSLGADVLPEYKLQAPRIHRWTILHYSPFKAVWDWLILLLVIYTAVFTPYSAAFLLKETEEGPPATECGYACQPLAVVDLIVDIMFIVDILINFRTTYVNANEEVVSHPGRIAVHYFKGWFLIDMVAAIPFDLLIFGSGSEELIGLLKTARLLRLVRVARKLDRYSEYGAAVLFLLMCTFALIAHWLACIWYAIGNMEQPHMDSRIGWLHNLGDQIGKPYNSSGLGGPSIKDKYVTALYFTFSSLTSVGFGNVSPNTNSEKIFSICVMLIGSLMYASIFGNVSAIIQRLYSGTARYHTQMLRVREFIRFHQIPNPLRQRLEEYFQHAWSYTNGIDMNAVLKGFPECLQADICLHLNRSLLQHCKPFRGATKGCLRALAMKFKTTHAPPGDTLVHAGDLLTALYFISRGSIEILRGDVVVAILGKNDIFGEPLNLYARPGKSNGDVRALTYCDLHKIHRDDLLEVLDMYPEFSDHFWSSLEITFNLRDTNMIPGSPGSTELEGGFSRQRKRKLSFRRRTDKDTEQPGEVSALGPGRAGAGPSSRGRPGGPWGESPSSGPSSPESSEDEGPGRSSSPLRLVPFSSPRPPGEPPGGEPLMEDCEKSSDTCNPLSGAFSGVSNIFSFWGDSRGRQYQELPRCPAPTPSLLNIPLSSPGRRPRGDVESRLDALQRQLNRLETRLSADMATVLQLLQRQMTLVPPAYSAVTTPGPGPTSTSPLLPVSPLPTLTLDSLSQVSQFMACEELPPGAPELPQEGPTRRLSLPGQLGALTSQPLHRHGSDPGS
# Chain of CYP2C19 (P33261 whole entry, canonical isoform): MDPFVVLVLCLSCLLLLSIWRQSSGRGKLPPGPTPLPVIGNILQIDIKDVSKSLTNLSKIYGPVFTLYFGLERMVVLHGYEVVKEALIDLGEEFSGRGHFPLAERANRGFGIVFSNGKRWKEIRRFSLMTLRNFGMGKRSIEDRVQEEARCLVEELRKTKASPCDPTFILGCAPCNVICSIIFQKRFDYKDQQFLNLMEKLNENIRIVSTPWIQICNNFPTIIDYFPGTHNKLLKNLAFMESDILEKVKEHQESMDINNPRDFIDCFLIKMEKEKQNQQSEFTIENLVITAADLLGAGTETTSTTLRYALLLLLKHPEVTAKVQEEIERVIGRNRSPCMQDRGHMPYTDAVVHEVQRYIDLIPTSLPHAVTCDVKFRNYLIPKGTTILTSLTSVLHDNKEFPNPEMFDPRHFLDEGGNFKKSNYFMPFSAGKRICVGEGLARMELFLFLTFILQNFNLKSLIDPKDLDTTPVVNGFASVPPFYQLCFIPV
structure (smiles),measurement,setting,value
"COc1cc2ncnc(Nc3cccc(Cl)c3F)c2cc1OCCON1CCN(C)CC1 [Compound 15, N-(3-chloro-2-fluorophenyl)-7-methoxy-6-(2-((4-methylpiperazin-1-yl)oxy)ethoxy)quinazolin-4-amine]",efflux,[1],reduced efflux ratios
same,permeability,[1],remarkably enhanced permeability
same,aqueous solubility,[2],markedly improved aqueous solubility
same,IC50,[3],3.1 nM
same,antiproliferative activity,"[4]; A431, 72 h, result in words",minimal activity
same,IC50,"[4]; Homo sapiens, A-431, A431, overexpressed EGFR wt, 72 h, read-out: antiproliferative IC50",83 nM
same,IC50,"[5]; HEK293 cells transfected with hERG, patch clamp",6480 nM
same,hERG maximal inhibition,[5]; at 10 μM,approximately 60%
same,IC50 at 20 min,[6],> 30000 nM
same,S(10) score,[7],0.015
